Data as given in paper PMC10055926.
“And” between values parts separate entries of the source, which are not always exact repeats. Identical values can stand only once. “Also recorded” adds a separate entry of the source. Counter-ions that a name gives are not always drawn. Like-named read-outs stand apart in the source and are kept apart here.

What was measured:
SARS-CoV-2 [1] = assay: SARS-CoV-2 antiviral assay in VeroE6-eGFP cells (CPE reduction, GFP); details: for EC50: MOI 0.001, 96 h
SARS-CoV-2 [2] = assay: Time-of-addition (TOA) assay in HeLa-hACE2, dsRNA staining; assay type: cell-based; details: HeLa-hACE2, MOI 4, 2.5-5 µM compound, dsRNA readout at 8 hpi
[3] = Cytotoxicity in uninfected A549-hACE2 cells (ATPlite); details: human, A549-hACE2 cells
A549-hACE2 cells = assay: as above; details: for CC50: read-out: CC50 in A549-hACE2, Toxicity (ATPlite), uninfected cells
in vitro [4] = details: human, Caco-2
SARS-CoV-2 [5] = assay: Immunofluorescence (HCI, dsRNA stain) antiviral assay, SARS-CoV-2 in HeLa-hACE2; assay type: cell-based; details: read-out: EC50 against SARS-CoV-2 in HeLa-hACE2
SARS-CoV-2 [6] = assay: SARS-CoV-2 viral RNA copy determination in A549-hACE2 cells (RT-qPCR on supernatant); assay type: cell-based; details: for reduction of SARS-CoV-2 RNA in the supernatant: A549-hACE2, RT-qPCR at 48 hpi; for EC50: read-out: EC50, viral RNA reduction in supernatant
SARS-CoV-2 [7] = assay: Immunofluorescence (HCI, spike stain) antiviral assay, SARS-CoV-2 in A549-hACE2; assay type: cell-based; details: read-out: EC50 against SARS-CoV-2 in A549-hACE2
[8] = system: SARS-CoV-2 pseudovirus (SARS2pp); assay: microbe, parasite or virus in culture; assay type: cell-based
HCoV-229E = assay: microbe, parasite or virus in culture; assay type: cell-based, human coronavirus 229E; details: HCI (dsRNA stain), 24 h at 35 °C, read-out: EC50 against HCoV-229E in HeLa-hACE2
SARS-CoV-1 = assay: microbe, parasite or virus in culture; assay type: cell-based; details: 24 h, read-out: EC50 against SARS-CoV-1 in A549-hACE2
[9] = system: SARS-CoV-2 pseudovirus (SARS2pp); assay: microbe, parasite or virus in culture; assay type: cell-based; details: luciferase, 24 h, read-out: EC50, neutralization of SARS2pp entry in VeroE6
cathepsin L = biological target: T1, cathepsin L (Homo sapiens, UniProt P07711); assay: Enzymatic cathepsin L inhibition assay (Eurofins); assay type: biochemical
T1 construct: purchased Eurofins (contract assay)

SARS-CoV-2 [10] = assay: Antiviral assessment in Caco-2 cells by visual CPE scoring; assay type: cell-based; details: read-out: EC50 against SARS-CoV-2 in Caco-2
SARS-CoV-2 [11] = assay: microbe, parasite or virus in culture; assay type: cell-based, SARS-CoV-2 (Lineage A, B.1); details: for EC50: vRNA (qPCR), read-out: EC50 against SARS-CoV-2 in HNECs; for antiviral activity in HNEC ALI cultures (in words): viral RNA copies in apical washes over three days
HeLa-hACE2 cells = assay: Immunofluorescence-based antiviral assay with LysoTracker dye in HeLa-hACE2; details: for LysoTracker signal intensity (in words): HeLa-hACE2, acidic organelle accumulation
in vitro [12] = details: African green monkey
in vitro [13] = details: African green monkey; remark: listed apart in the source
SARS-CoV-2 [14] = system: SARS-CoV-2
[15] = Severe acute respiratory syndrome coronavirus 2, 96 h, read-out: EC50 against SARS-CoV-2 in VeroE6-eGFP, CPE reduction (GFP)
[16] = Severe acute respiratory syndrome coronavirus 2, 24 h
[17] = A549-hACE2, SARS-CoV-2 MOI 0.1, RT-qPCR at 48 hpi
[18] = Severe acute respiratory syndrome coronavirus 2, A549-hACE2, SARS-CoV-2 MOI 0.1, RT-qPCR at 48 hpi
[19] = Severe acute respiratory syndrome-related coronavirus, VeroE6/TMPRSS2, SARS2pp, mean ± SD, unit inferred, [µM] only in axis labels, read-out: VeroE6 TMPRSS2: EC50 (Figure 6)
[20] = Severe acute respiratory syndrome coronavirus
[21] = Severe acute respiratory syndrome-related coronavirus, Vero C1008
[22] = read-out: EC50 against SARS-CoV-2 in VeroE6-eGFP, CPE reduction (GFP)

T1 sequence (P07711 114-333): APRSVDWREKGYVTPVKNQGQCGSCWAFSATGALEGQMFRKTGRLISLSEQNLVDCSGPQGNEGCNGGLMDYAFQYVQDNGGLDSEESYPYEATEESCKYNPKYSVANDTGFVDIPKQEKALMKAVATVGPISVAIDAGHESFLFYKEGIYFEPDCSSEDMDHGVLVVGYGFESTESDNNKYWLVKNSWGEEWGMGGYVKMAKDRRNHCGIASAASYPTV

For `C[C@H](NC(=O)[C@H](Cc1ccc(O)cc1)NC(=O)OCc1ccccc1)C(=O)C=[N+]=[N-]`, the “selectivity index (SI), VeroE6-eGFP SARS-CoV-2” value (SARS-CoV-2 [1]; CC50/EC50 in VeroE6-eGFP) was greater than 15, the EC50 (SARS-CoV-2 [1]; [15]) was 1330 ± 490 nM and the “time of addition from which antiviral activity was lost” value (SARS-CoV-2 [2]) was no less than 2 h post virus infection. For the same compound, the CC50 [3] was greater than 25000 nM, the “cytotoxicity (in words)” value (A549-hACE2 cells; uninfected A549-hACE2, ATPlite) was “did not show cytotoxicity” and the CC50 (in vitro [4]) was greater than 50000 nM. For the same compound, the EC50 (SARS-CoV-2 [5]; 24 h) was 10 ± 1 nM, the EC50 (SARS-CoV-2 [5]; [16]) was 6 nM and the “reduction of SARS-CoV-2 RNA in the supernatant” value (from here on “reduction of SARS-CoV-2 RNA”) (SARS-CoV-2 [6]) was ~ 4 log and 4 log. It also gave an EC50 (SARS-CoV-2 [6]; [17]) of 321 nM, an EC50 (SARS-CoV-2 [6]; [18]) of 320 nM and an EC50 (SARS-CoV-2 [7]; 24 h) of 50 ± 3 nM. The EC50 (SARS-CoV-2 [7]; [16]) was 46 nM, the “activity against SARS2pp in VeroE6 TMPRSS2 (in words)” value [8] was “not active at all” and the EC50 [8, 19] was greater than 30 µM. It also gave an EC50 (HCoV-229E) of 70 ± 10 nM, an EC50 (HCoV-229E; Human coronavirus 229E, 24 h) of 69 nM and an EC50 (SARS-CoV-1; [20]) of 50 ± 16 nM. For the same compound, the EC50 [9, 21] was 130 nM, the EC50 (cathepsin L; enzymatic assay, substrate Z-Phe-Arg AMC, one experiment) was less than 50 nM and the EC50 (SARS-CoV-2 [10]; Severe acute respiratory syndrome coronavirus 2, Caco-2, CPE reduction (manual scoring), MOI 0.01, 48 h) was greater than 50000 nM. For the same compound, the EC50 (SARS-CoV-2 [11]; Severe acute respiratory syndrome coronavirus 2) was greater than 20000 nM, the “antiviral activity in HNEC ALI cultures (in words)” value (SARS-CoV-2 [11]; compound at 20 µM) was “does not inhibit SARS-CoV-2 infection; also recorded: did not show antiviral activity” and the “antiviral activity in differentiated HNECs (in words)” value (SARS-CoV-2 [11]; concentration not given) was “did not show antiviral activity”. The “LysoTracker signal intensity (in words)” value (HeLa-hACE2 cells) was “did not significantly increase the intensity of the LysoTracker signal”.
In the case of `CC(C)(C)[C@H](NC(=O)C(F)(F)F)C(=O)N1C[C@H]2[C@@H]([C@H]1C(=O)N[C@H](C#N)C[C@@H]1CCNC1=O)C2(C)C` [PF-07321332, nirmatrelvir], the “time of addition until which inhibition of dsRNA formation was sustained” value (SARS-CoV-2 [2]) is reported as ~ 4 hpi, the “antiviral activity in HNEC ALI cultures (in words)” value (SARS-CoV-2 [11]; compound at 2.5 µM) is reported as “did” and the EC50 (SARS-CoV-2 [11]) is reported as 180 ± 140 nM.
With `CN1CCN(C(=O)N[C@@H](Cc2ccccc2)C(=O)N[C@H](/C=C/S(=O)(=O)c2ccccc2)CCc2ccccc2)CC1` [K777] the EC50 (SARS-CoV-2 [1]; [22]) was 540 ± 140 nM, the CC50 (A549-hACE2 cells) was greater than 50 nM and the EC50 (SARS-CoV-2 [5]; 24 h) was 0.6 ± 0.05 nM. It also gave a CC50 (VeroE6-eGFP cells) of roughly 50000 nM, an EC50 (SARS-CoV-2 [7]; 24 h) of 4 ± 0.2 nM and an EC50 ([8]; luciferase, 24 h, read-out: EC50, neutralization of SARS2pp entry in VeroE6 TMPRSS2) of 18.6 µM. The EC50 (HCoV-229E) was 2 ± 0.4 nM, the EC50 (SARS-CoV-1; HCI (spike stain), MOI 0.1) was 3 ± 0.5 nM and the CC50 (VeroE6 cells) was greater than 30000 nM. For the same compound, the EC50 [9] was 23 nM and the “concentration at which the LysoTracker signal is significantly increased” value (HeLa-hACE2 cells; HeLa-hACE2, adjusted p-value < 0.05 vs virus control) was no less than 2.2 µM.
For `CC(=O)N[C@@H](CC(C)C)C(=O)N[C@@H](CC(C)C)C(=O)N[C@H](C=O)CCCNC(=N)N` [leupeptin], the “cathepsin L activity (in words)” value (cathepsin L; positive control) was “blocked cathepsin L activity”.
For `CC(C)C(=O)OC[C@H]1O[C@@H](n2ccc(NO)nc2=O)[C@H](O)[C@@H]1O` [Molnu-Piravir, molnupiravir], the CC50 (in vitro [12]) was greater than 100000 nM, the CC50 [3] was greater than 50000 nM and the EC50 (SARS-CoV-2 [5]; [16]) was 1010 ± 110 nM. It also gave an EC50 (HCoV-229E; Human coronavirus 229E, 24 h) of 1320 ± 180 nM.
With `CN(C)C(=O)COC(=O)Cc1ccc(OC(=O)c2ccc(NC(=N)N)cc2)cc1` [Camostat mesylate, camostat mesylate] the EC50 [8, 19] was 18 ± 5.52 µM, the EC50 ([8]; Severe acute respiratory syndrome-related coronavirus, VeroE6/TMPRSS2, luciferase, 24 h, read-out: EC50, neutralization of SARS2pp entry in VeroE6 TMPRSS2) was roughly 18 µM and the CC50 (in vitro [13]) was greater than 30000 nM. For the same compound, the EC50 [9, 21] was greater than 30000 nM.
In the case of `COc1cccc2[nH]c(C(=O)N[C@@H](CC(C)C)C(=O)N[C@@H](C[C@@H]3CCNC3=O)C(=O)CO)cc12` [PF-00835231], the EC50 (SARS-CoV-2 [1]; [22]) is reported as greater than 50000 nM, the “time of addition until which inhibition of dsRNA formation was sustained” value (SARS-CoV-2 [2]) is reported as ~ 4 hpi and the CC50 (A549-hACE2 cells) is reported as greater than 12500 nM. The EC50 (SARS-CoV-2 [5]; 24 h) was 160 ± 20 nM, the “reduction of SARS-CoV-2 RNA” value (SARS-CoV-2 [6]) was ~ 4.8 log and the EC50 (SARS-CoV-2 [6]; [17]) was 530 nM and 532 nM. For the same compound, the CC50 (VeroE6-eGFP cells) was greater than 20000 nM, the EC50 (SARS-CoV-2 [7]; 24 h) was 180 ± 8 nM and the EC50 (HCoV-229E) was 470 ± 40 nM. The EC50 (SARS-CoV-1; HCI (spike stain), MOI 0.1) was 550 ± 40 nM and the “LysoTracker signal intensity (in words)” value (HeLa-hACE2 cells) was “neither one of the compounds increased the intensity of the LysoTracker signal”.
In the case of `CCC(CC)COC(=O)[C@H](C)N[P@](=O)(OC[C@H]1O[C@@](C#N)(c2ccc3c(N)ncnn23)[C@H](O)[C@@H]1O)Oc1ccccc1` [Remdesivir, remdesivir], the CC50 (in vitro [12]) is reported as greater than 100000 nM, the EC50 (SARS-CoV-2 [1]; [15]) is reported as 1340 nM and the “time of addition until which inhibition of dsRNA formation was sustained” value (SARS-CoV-2 [2]) is reported as ~ 4 hpi. For the same compound, the CC50 [3] was greater than 25000 nM, the EC50 (SARS-CoV-2 [5]; [16]) was 110 ± 10 nM and the “reduction of SARS-CoV-2 RNA” value (SARS-CoV-2 [6]) was ~ 4.5 log. For the same compound, the EC50 (SARS-CoV-2 [6]; [17]) was 411 nM, the EC50 (SARS-CoV-2 [6]; [18]) was 410 nM and the EC50 (SARS-CoV-2 [7]; [16]) was 180 ± 10 nM. The EC50 (HCoV-229E; Human coronavirus 229E, 24 h) was 110 ± 9 nM, the EC50 (SARS-CoV-1; [20]) was 330 ± 20 nM and the EC50 (SARS-CoV-2 [10]; Severe acute respiratory syndrome coronavirus 2, Caco-2, 48 h) was 770 ± 260 nM. The “LysoTracker signal intensity (in words)” value (HeLa-hACE2 cells) was “neither one of the compounds increased the intensity of the LysoTracker signal” and the EC50 (SARS-CoV-2 [14]) was 1420 ± 150 nM.
